Experimental data: patent US20110245283A1, “Methods for predicting the response to statins” (priority 2009, published 2011)
Like-named read-outs stand apart in the source and are kept apart here.

What was measured:
LDL = experiment: Logistic regression models of attaining LDL goal: odds ratios for concurrent or prior drug doses; assay type: in vivo, patients; conditions: for OR: per dose increment
Protocol: G. Covariates for the multivariate model—The following list includes the predictors one or more of which may be tested in the multivariate models. • 1. AGE: (expressed in units of 10 years) at time that the new statin prescription was released • 2. GENDER, E. G., MALE: 1=yes, 0=no • 3. BMI (kg/M^2): last value before release date • 4. HBA1C (hemoglobin Alc): last value before release date • 5. PLDL: preceding LDL level expressed in e.g. 10 mg/dl units • 6. Statins • a. PLOVA: prior daily dose of lovastatin expressed in e.g. 10 mg units • b. […] For additional drugs: • a. AMIODOSE: amiodarone dose in mg/day • b. CARBDOSE: carbemazepine dose in mg/day • c. PIOGDOSE: pioglitazone dose expressed as number of 15 mg doses per day • d. […] METFDOSE: metformin dose expressed as number of 1000 mg doses per day • f. PHENDOSE: phenyloin dose in mg/day • g. RISPDOSE: risperidone dose in mg/day • h. ROSIDOSE: rosiglitazone dose in mg/day • i.
Body mass index (BMI) was chosen as a covariate of statin response because obese patients tend to consume a diet high in cholesterol. It was hypothesized that they would respond less well to statins because their hypercholesterolemia was more likely to be mediated by dietary indiscretion than excessive LDL synthesis. […] Metformin and the thiazolidinediones were chosen because they reduce LDL levels in diabetic patients through mechanisms that may or may not be affected by concurrent statin treatment. The remaining non-statin drugs were chosen because they are commonly used drugs that potentiate the effect of statins. They were selected by reviewing the official on-line VA pharmaceutical reference (Micromedex®) for major interactions mediated by impaired statin metabolism. […] The daily dose of the non-statin drug was calculated by the method described in Section B.
H. Assembling the predictor file—The patient identifier was used to link the new statin prescription type and dose, the preceding LDL above goal, and the type and dose of the previous statin (if any) with the patient's most recent HbA1c, most recent BMI, and the daily doses of 9 drugs with major statin interactions that were active at the time the new prescription was released.
The dependent variable was attainment of goal (LDL <100 mg/dl). […] Step selections were based upon the maximal likelihood method with α<0.15 to enter and ≧0.15 to remove.

[1] = cited from earlier work
[2] = odds of goal LDL <100 mg/dl, Lovastatin 20 mg [A] model (includes HbA1c; n = 595)
[3] = odds of goal, Lovastatin 20 mg [B] model (excludes HbA1c; n = 733)
[4] = odds of goal, Lovastatin 40 mg model (n = 764)
[5] = odds of goal, Simvastatin 10 mg [A] model (no previous treatment; n = 172)
[6] = odds of goal, Simvastatin 10 mg [C] model (excludes BMI; n = 219)
[7] = odds of goal, Simvastatin 40 mg model (n = 698)

COc1ccc([C@@H]2Sc3ccccc3N(CCN(C)C)C(=O)[C@@H]2OC(C)=O)cc1 [Diltiazem, diltiazem]
Increase of odds of reaching goal (LDL; for every 120 mg per day diltiazem, lovastatin 20 mg model): 70%
OR (LDL; [2]): 1.44
OR (LDL; [3]): 1.69
OR (LDL; [4]): 1.35
OR (LDL; [5]): 1.78
OR (LDL; [6]): 1.76
OR (LDL; [7]): 1.70

CN(C)C(=N)N=C(N)N [Metformin, metformin]
Odds ratio for concurrent treatment (LDL; for every 1,000 mg daily, 2 models): 1.3
OR (LDL; [2]): 1.30
OR (LDL; [3]): 1.26
OR (LDL; [4]): 1.22
OR (LDL; [5]): 1.84
OR (LDL; [6]): 1.98
OR (LDL; [7]): 1.31
Increase of odds of reaching goal (LDL; patient taking metformin, simvastatin 40 mg model): 30%

CCc1ccc(CCOc2ccc(CC3SC(=O)NC3=O)cc2)nc1 (stereo not drawn) [Pioglitazone, pioglitazone]
OR (LDL; [3]): 2.06

CCC[C@@]1(CCc2ccccc2)CC(O)=C([C@H](CC)c2cccc(NS(=O)(=O)c3ccc(C(F)(F)F)cn3)c2)C(=O)O1 [Tipranavir]
Increased risk of toxicity or reduced statin effectiveness ([1]; with Lova): (+)
Severity of the interaction ([1]; with Lova): 3
Increased risk of toxicity or reduced statin effectiveness ([1]; with Simva): (+)
Severity of the interaction ([1]; with Simva): 3

Cc1ccc(C)c(OCCCC(C)(C)C(=O)O)c1 [Gemfibrozil]
Increased risk of toxicity or reduced statin effectiveness ([1]; with Atorva): (+)
Severity of the interaction ([1]; with Atorva): 3
Increased risk of toxicity or reduced statin effectiveness ([1]; with Fluva): (+)
Severity of the interaction ([1]; with Fluva): 3
Increased risk of toxicity or reduced statin effectiveness ([1]; with Lova): (+)
Severity of the interaction ([1]; with Lova): 3
Increased risk of toxicity or reduced statin effectiveness ([1]; with Prava): (+)
Severity of the interaction ([1]; with Prava): 3
Increased risk of toxicity or reduced statin effectiveness ([1]; with Rosuva): (+)
Severity of the interaction ([1]; with Rosuva): 3
Increased risk of toxicity or reduced statin effectiveness ([1]; with Simva): (+)
Severity of the interaction ([1]; with Simva): 3

CC[C@H]1OC(=O)[C@H](C)C(=O)[C@H](C)[C@@H](O[C@@H]2O[C@H](C)C[C@H](N(C)C)[C@H]2O)[C@](C)(OC)C[C@@H](C)C(=O)[C@H](C)[C@H]2N(CCCCn3cnc(-c4cccnc4)c3)C(=O)O[C@]12C [Telithromycin]
Increased risk of toxicity or reduced statin effectiveness ([1]; with Atorva): (+)
Severity of the interaction ([1]; with Atorva): 3
Increased risk of toxicity or reduced statin effectiveness ([1]; with Lova): (+)
Severity of the interaction ([1]; with Lova): 3
Increased risk of toxicity or reduced statin effectiveness ([1]; with Simva): (+)
Severity of the interaction ([1]; with Simva): 3

COc1ccc2nc([S@@+]([O-])Cc3ncc(C)c(OC)c3C)[nH]c2c1 [Esomeprazole]
Increased risk of toxicity or reduced statin effectiveness ([1]; with Atorva): (+)
Severity of the interaction ([1]; with Atorva): 3

Magaldrate
Severity of the interaction ([1]; with Rosuva): 2

CCN(CC)CCS(=O)(=O)[C@@H]1CCN2C(=O)c3coc(n3)CC(=O)C[C@H](O)/C=C(C)/C=C/CNC(=O)/C=C/[C@@H](C)[C@@H](C(C)C)OC(=O)[C@@H]12 [Dalfopristin]
Increased risk of toxicity or reduced statin effectiveness ([1]; with Atorva): (+)
Severity of the interaction ([1]; with Atorva): 3
Increased risk of toxicity or reduced statin effectiveness ([1]; with Fluva): (+)
Severity of the interaction ([1]; with Fluva): 3
Increased risk of toxicity or reduced statin effectiveness ([1]; with Lova): (+)
Severity of the interaction ([1]; with Lova): 3
Increased risk of toxicity or reduced statin effectiveness ([1]; with Prava): (+)
Severity of the interaction ([1]; with Prava): 3
Increased risk of toxicity or reduced statin effectiveness ([1]; with Simva): (+)
Severity of the interaction ([1]; with Simva): 3
